Laboratory results published in patent publication US20020137929A1, “1 - (3-heterocyclylphenyl) isothiourea, -isourea, -guanidine and -amidine herbicidal agents” (Intellectual Property Department, BASF Aktiengesellschaft, priority 1998, published 2002).

What was measured:
[1] = system: AMBEL (Ragweed, Common); assay: Postemergence herbicidal evaluation; type: in vivo, Ambrosia artemisifolia; conditions: postemergence
Procedure, shortened: (§1)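 First, seedlings were raised for around two weeks. Next, test material in 50/50 acetone/water containing 0.5% TWEEN 20 was sprayed through a nozzle at 40 psi, equivalent to about 0.0156–0.500 kg/ha. Finally, after 4–5 weeks in the greenhouse, plants were rated 0–9.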

[2] = system: CASOB (Sicklepod); assay: Postemergence herbicidal evaluation; type: in vivo, Cassia obtusifolia; conditions: postemergence
Procedure, shortened: as §1

[3] = system: CHEAL (Lambsquarters, Common); assay: Postemergence herbicidal evaluation; type: in vivo, Chenopodium album; conditions: postemergence
Procedure, shortened: as §1

[4] = system: IPOHE (Morningglory, Ivyleaf); assay: Postemergence herbicidal evaluation; type: in vivo, Ipomoea hederacea; conditions: postemergence
Procedure, shortened: as §1

[5] = system: ECHCG (Barnyardgrass); assay: Postemergence herbicidal evaluation; type: in vivo, Echinochloa crus-galli; conditions: postemergence
Procedure, shortened: as §1

[6] = system: GLXMAW (Soybean, Williams); assay: Postemergence herbicidal evaluation; type: in vivo, Glycine max, (L.) Merr. cv Williams; conditions: postemergence
Procedure, shortened: as §1

[7] = system: TRZAWR (Wheat, Winter, cv Riband); assay: Postemergence herbicidal evaluation; type: in vivo, Triticum aestivum; conditions: postemergence
Procedure, shortened: as §1

[8] = system: ABUTH (Velvetleaf); assay: Preemergence herbicidal evaluation; type: in vivo, Abutilon theophrasti; conditions: rated 4-5 weeks after treatment
Procedure, shortened: (§2)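 Scores (0–9) reflect visual comparison with control plants for stand, vigor, malformation, size and chlorosis. Compound was applied to the soil after sowing, before emergence, as an aqueous acetone spray (about 0.0156–0.500 kg/ha), and cups were kept in a greenhouse for 4–5 weeks.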

[9] = system: AMBEL (Ragweed, Common); assay: Preemergence herbicidal evaluation; type: in vivo, Ambrosia artemisifolia; conditions: rated 4-5 weeks after treatment
Procedure, shortened: as §2

[10] = system: CASOB (Sicklepod); assay: Preemergence herbicidal evaluation; type: in vivo, Cassia obtusifolia; conditions: rated 4-5 weeks after treatment
Procedure, shortened: as §2

[11] = system: CHEAL (Lambsquarters, Common); assay: Preemergence herbicidal evaluation; type: in vivo, Chenopodium album; conditions: rated 4-5 weeks after treatment
Procedure, shortened: as §2

[12] = system: IPOHE (Morningglory, Ivyleaf); assay: Preemergence herbicidal evaluation; type: in vivo, Ipomoea hederacea; conditions: rated 4-5 weeks after treatment
Procedure, shortened: as §2

[13] = system: GLXMAW (Soybean, Williams); assay: Preemergence herbicidal evaluation; type: in vivo, Glycine max, (L.) Merr. cv Williams; conditions: rated 4-5 weeks after treatment
Procedure, shortened: as §2

[14] = system: ORYSAT (Rice, Tebonnet); assay: Preemergence herbicidal evaluation; type: in vivo, Oryza sativa, (L.) Tebonnet; conditions: rated 4-5 weeks after treatment
Procedure, shortened: as §2

[15] = system: MOOVA (Monochoria); assay: Preemergence weed control under flooded paddy conditions; type: in vivo, Monochoria vaginalis; conditions: rated 3-4 weeks after treatment
Procedure, shortened: (§3)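 Values are visual 0-9 scores against a control for a preemergence application into paddy flood water at about 0.0313 to 0.500 kg/ha. Greenhouse duration was three to four weeks.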

[16] = system: SAGPY (Arrowhead (Pygmaea)); assay: as above; type: in vivo, Sagittaria pygmaea; conditions: rated 3-4 weeks after treatment
Procedure, shortened: as §3

With `CCOC(=O)CN1C(=O)C(OC)SC1=Nc1cc(-n2c(=O)cc(C(F)(F)F)n(C)c2=O)c(F)cc1Cl` (stereo not drawn) [Compound 160, Ethyl 2-{{2-chloro-5-[3,6-dihydro-3-methyl-2,6-dioxo-4-(trifluoromethyl)-1(2H)-pyrimidinyl]-4-fluorophenyl}imino}-5-methoxy-4-oxo-3-thiazolidineacetate] the “Herbicidal rating AMBEL” value ([1]; rate 0.0156 kg/ha) was 7.0, the “Herbicidal rating AMBEL” value ([1]; rate 0.0313 kg/ha) was 7.0 and the “Herbicidal rating AMBEL” value ([1]; rate 0.0625 kg/ha) was 9.0. The “Herbicidal rating AMBEL” value ([1]; rate 0.1250 kg/ha) was 9.0, the “Herbicidal rating CASOB” value ([2]; rate 0.0156 kg/ha) was 0.0 and the “Herbicidal rating CASOB” value ([2]; rate 0.0313 kg/ha) was 0.0. The “Herbicidal rating CASOB” value ([2]; rate 0.0625 kg/ha) was 1.0, the “Herbicidal rating CASOB” value ([2]; rate 0.1250 kg/ha) was 4.0 and the “Herbicidal rating CHEAL” value ([3]; rate 0.0156 kg/ha) was 2.0. For the same compound, the “Herbicidal rating CHEAL” value ([3]; rate 0.0313 kg/ha) was 6.0, the “Herbicidal rating CHEAL” value ([3]; rate 0.0625 kg/ha) was 9.0 and the “Herbicidal rating CHEAL” value ([3]; rate 0.1250 kg/ha) was 9.0. The “Herbicidal rating IPOHE” value ([4]; rate 0.0156 kg/ha) was 9.0, the “Herbicidal rating IPOHE” value ([4]; rate 0.0313 kg/ha) was 9.0 and the “Herbicidal rating IPOHE” value ([4]; rate 0.0625 kg/ha) was 9.0. For the same compound, the “Herbicidal rating IPOHE” value ([4]; rate 0.1250 kg/ha) was 9.0, the “Herbicidal rating ECHCG” value ([5]; rate 0.0156 kg/ha) was 3.0 and the “Herbicidal rating ECHCG” value ([5]; rate 0.0313 kg/ha) was 5.0. For the same compound, the “Herbicidal rating ECHCG” value ([5]; rate 0.0625 kg/ha) was 4.0, the “Herbicidal rating ECHCG” value ([5]; rate 0.1250 kg/ha) was 7.0 and the “Herbicidal rating GLXMAW” value ([6]; rate 0.0156 kg/ha) was 5.0. For the same compound, the “Herbicidal rating GLXMAW” value ([6]; rate 0.0313 kg/ha) was 6.0, the “Herbicidal rating GLXMAW” value ([6]; rate 0.0625 kg/ha) was 7.0 and the “Herbicidal rating GLXMAW” value ([6]; rate 0.1250 kg/ha) was 7.0. The “Herbicidal rating TRZAWR” value ([7]; rate 0.0156 kg/ha) was 3.0, the “Herbicidal rating TRZAWR” value ([7]; rate 0.0313 kg/ha) was 4.0 and the “Herbicidal rating TRZAWR” value ([7]; rate 0.0625 kg/ha) was 5.0. For the same compound, the “Herbicidal rating TRZAWR” value ([7]; rate 0.1250 kg/ha) was 6.0, the “Preemergence herbicidal rating ABUTH” value ([8]; 0.0156 kg/ha) was 5.0 and the “Preemergence herbicidal rating ABUTH” value ([8]; 0.0313 kg/ha) was 9.0. For the same compound, the “Preemergence herbicidal rating ABUTH” value ([8]; 0.0625 kg/ha) was 9.0, the “Preemergence herbicidal rating ABUTH” value ([8]; 0.1250 kg/ha) was 9.0 and the “Preemergence herbicidal rating ABUTH” value ([8]; 0.2500 kg/ha) was 9.0. The “Preemergence herbicidal rating ABUTH” value ([8]; 0.5000 kg/ha) was 9.0, the “Preemergence herbicidal rating AMBEL” value ([9]; 0.0156 kg/ha) was 7.0 and the “Preemergence herbicidal rating AMBEL” value ([9]; 0.0313 kg/ha) was 6.0. The “Preemergence herbicidal rating AMBEL” value ([9]; 0.0625 kg/ha) was 9.0, the “Preemergence herbicidal rating AMBEL” value ([9]; 0.1250 kg/ha) was 9.0 and the “Preemergence herbicidal rating AMBEL” value ([9]; 0.2500 kg/ha) was 9.0. For the same compound, the “Preemergence herbicidal rating AMBEL” value ([9]; 0.5000 kg/ha) was 9.0, the “Preemergence herbicidal rating CASOB” value ([10]; 0.0156 kg/ha) was 0.0 and the “Preemergence herbicidal rating CASOB” value ([10]; 0.0313 kg/ha) was 0.0. The “Preemergence herbicidal rating CASOB” value ([10]; 0.0625 kg/ha) was 2.0, the “Preemergence herbicidal rating CASOB” value ([10]; 0.1250 kg/ha) was 1.0 and the “Preemergence herbicidal rating CASOB” value ([10]; 0.2500 kg/ha) was 7.0. The “Preemergence herbicidal rating CASOB” value ([10]; 0.5000 kg/ha) was 9.0, the “Preemergence herbicidal rating CHEAL” value ([11]; 0.0156 kg/ha) was 2.0 and the “Preemergence herbicidal rating CHEAL” value ([11]; 0.0313 kg/ha) was 9.0. For the same compound, the “Preemergence herbicidal rating CHEAL” value ([11]; 0.0625 kg/ha) was 9.0, the “Preemergence herbicidal rating CHEAL” value ([11]; 0.1250 kg/ha) was 9.0 and the “Preemergence herbicidal rating CHEAL” value ([11]; 0.2500 kg/ha) was 9.0. The “Preemergence herbicidal rating CHEAL” value ([11]; 0.5000 kg/ha) was 9.0, the “Preemergence herbicidal rating IPOHE” value ([12]; 0.0156 kg/ha) was 3.0 and the “Preemergence herbicidal rating IPOHE” value ([12]; 0.0313 kg/ha) was 6.0. The “Preemergence herbicidal rating IPOHE” value ([12]; 0.0625 kg/ha) was 9.0, the “Preemergence herbicidal rating IPOHE” value ([12]; 0.1250 kg/ha) was 9.0 and the “Preemergence herbicidal rating IPOHE” value ([12]; 0.2500 kg/ha) was 8.0. The “Preemergence herbicidal rating IPOHE” value ([12]; 0.5000 kg/ha) was 9.0, the “Preemergence herbicidal rating GLXMAW” value ([13]; 0.0156 kg/ha) was 1.0 and the “Preemergence herbicidal rating GLXMAW” value ([13]; 0.0313 kg/ha) was 1.0. The “Preemergence herbicidal rating GLXMAW” value ([13]; 0.0625 kg/ha) was 1.0, the “Preemergence herbicidal rating GLXMAW” value ([13]; 0.1250 kg/ha) was 2.0 and the “Preemergence herbicidal rating GLXMAW” value ([13]; 0.2500 kg/ha) was 9.0. The “Preemergence herbicidal rating GLXMAW” value ([13]; 0.5000 kg/ha) was 9.0, the “Preemergence herbicidal rating ORYSAT” value ([14]; 0.0156 kg/ha) was 0.0 and the “Preemergence herbicidal rating ORYSAT” value ([14]; 0.0313 kg/ha) was 0.0. The “Preemergence herbicidal rating ORYSAT” value ([14]; 0.0625 kg/ha) was 1.0, the “Preemergence herbicidal rating ORYSAT” value ([14]; 0.1250 kg/ha) was 1.0 and the “Preemergence herbicidal rating ORYSAT” value ([14]; 0.2500 kg/ha) was 7.0. For the same compound, the “Preemergence herbicidal rating ORYSAT” value ([14]; 0.5000 kg/ha) was 8.0, the “herbicidal effect rating, MOOVA” value ([15]; 0.0313 kg/ha) was 5.0 and the “herbicidal effect rating, MOOVA” value ([15]; 0.0625 kg/ha) was 6.0. For the same compound, the “herbicidal effect rating, MOOVA” value ([15]; 0.1250 kg/ha) was 6.0, the “herbicidal effect rating, MOOVA” value ([15]; 0.2500 kg/ha) was 7.0 and the “herbicidal effect rating, SAGPY” value ([16]; 0.0313 kg/ha) was 0.0. The “herbicidal effect rating, SAGPY” value ([16]; 0.0625 kg/ha) was 2.0, the “herbicidal effect rating, SAGPY” value ([16]; 0.1250 kg/ha) was 5.0 and the “herbicidal effect rating, SAGPY” value ([16]; 0.2500 kg/ha) was 8.0.
